Test results from article PMC8175350, “Drug repurposing screens identify chemical entities for the development of COVID-19 interventions” (Nature Communications, 2021).
Values joined by “and” are separate entries in the source; they are usually repeats but may differ in a detail not shown here. Equal entries are not always repeated. Where two headings read alike, the source gives them in different places.

Assays:
[1] = system: HeLa-ACE2 cells; test: Uninfected HeLa-ACE2 24 h live/dead cytotoxicity counter screen; type: cell-based, human; settings: HeLa-ACE2; concentration log[M] -8.59517; replicates
[2] = as above; type: cell-based, human; settings: human, uninfected HeLa-ACE2 cells, detail block; read-out: HeLa-ACE2 uninfected cytotoxicity CC50 GeoMean
[3] = system: SARS-CoV-2; test: microbe, parasite or virus in culture; type: cell-based; settings: for %infected: Calu-3, replicates n=1, n=2
[4] = system: SARS-CoV-2; test: microbe, parasite or virus in culture; type: cell-based
[5] = system: SARS-CoV-2; type: cell-based; settings: 72 hpi
[6] = system: SARS-CoV-2; test: microbe, parasite or virus in culture; type: cell-based; remark: listed apart in the source
[7] = in vitro; settings: human
[8] = Pharmacokinetic studies in Syrian hamsters, PO; type: in vivo; settings: male, Syrian, hamster, in vivo
Method: Pharmacokinetic studies were conducted at Scripps Research Institute’s Animal Models Core in accordance with IACUC guidelines (IACUC Protocol #09-0004-5). Eight-week-old male Syrian Hamsters (Charles River; three per group) were dosed PO as indicated for each compound and formulation. Plasma concentration of each test article was monitored up to 48 h. Nelfinavir was formulated in 10% DMSO/90% corn oil and MK-4482 was formulated in 10% PEG400/2.5% Cremaphor RH40 for both pharmacokinetic and efficacy studies.

[9] = system: SARS-CoV-2; test: Hamster lung viral titer by plaque assay, day 5; type: in vivo, Golden Syrian hamster; settings: for SARS-CoV-2 viral load in lung by plaque quantification, individual animals: values look like log10
[10] = system: HeLa-ACE2 cells; test: cells; type: cell-based, human; settings: Homo sapiens, HeLa-ACE2; read-out: HeLa-ACE2 TOA cell count EC50 GeoMean
[11] = system: SARS-CoV-2; test: Golden Syrian hamster SARS-CoV-2 efficacy model, body weight; type: in vivo; settings: for group average % of starting weight: day 5 of infection
[12] = system: SARS-CoV-2; test: Hamster lung histopathology/infiltrate quantification (H&E, ImageJ); type: in vivo, Golden Syrian hamster; settings: 500 mg/kg
From the text: ImageJ (V1.53) software is used to quantify H&E-stained slide images (at ×20 magnification). Images are first converted to 8-Bit (Image > Type > 8-Bit), their threshold is adjusted (Image > Adjust > Threshold), a threshold value between 70–80% is chosen to ensure only dark stained nuclei are detected. Following thresholding the image is converted to a mask (Process > Binary > Convert to Mask) and analyzed (Analyze > Analyze Particles) with default settings, adding display results and show outline and the output was exported into GraphPad Prism (V9.0.0) where the nonparametric, two-sided Mann–Whitney statistical test was used to calculate significance.

[13] = system: Calu-3 cells
[14] = system: SARS-CoV-2; test: Hamster lung RNA-Seq analysis; type: in vivo, Golden Syrian hamster; settings: 500 mg/kg
[15] = system: HeLa-ACE2 cells; test: cells; settings: Homo sapiens
[16] = system: Calu-3 cells; test: cells; settings: Homo sapiens
[17] = in vitro; settings: human; remark: listed apart in the source
[18] = in vitro; settings: human, Calu-3 uninfected cytotoxicity CC50 GeoMean

CC(C)C(=O)OC[C@H]1O[C@@H](n2ccc(NO)nc2=O)[C@H](O)[C@@H]1O [MK-4482]
cytotox [1]: -0.706 and -12.7385 and -12.928 and 0.5106 and 4.684 and -11.4286 and -5.289 and -2.8 and 6.41
CC50 at 24 h [2]: > 39.8 µM
%infected ([3]; concentration log[M] -5.00096): -32.7882% and -37.4837% and -33.6325% and -41.3774% and -26.9927% and -42.8416%
%infected ([3]; concentration log[M] -5.47808): -27.4805% and -3.693% and -9.149% and -11.3438% and 9.653% and -8.935%
%infected ([3]; concentration log[M] -6.08014): 23.1125% and 4.59% and 25.286% and 17.3454% and 15.2546% and 10.3832%
%infected ([3]; concentration log[M] -6.42922): 17.3493% and 17.6914% and 5.1734% and 5.136% and 26.2062% and 8.78%
%infected ([3]; concentration log[M] -6.90623): 7.3785% and 13.9122% and -0.1637% and 2.863% and 27.9695% and 13.9935%
%infected ([3]; concentration log[M] -7.50836): -8.777% and 19.9854% and 1.789% and 24.5386% and 23.5481% and -28.3332%
%infected ([3]; concentration log[M] -7.85886): 17.2433% and 32.9409% and -21.7492% and 16.4627% and 42.3108% and 21.6153%
%infected ([3]; concentration log[M] -8.33602): 11.8145% and 8.098% and -0.8953% and 19.1715% and 30.2349% and 22.7038%
Emax ([3]; Severe acute respiratory syndrome coronavirus 2, Calu-3, 48 h, curve plateau at infinite concentration, read-out: Calu-3 CoV-2 Sinf Average): 100%
EC50 ([3]; Severe acute respiratory syndrome coronavirus 2, Calu-3, detail block, read-out: Calu-3 CoV-2 EC50 GeoMean): > 9.98 µM
TOA ([4]; HeLa-ACE2, log[M] -7.8551): 2.9089 and 4.102 and 5.064
EC50 ([4]; Severe acute respiratory syndrome coronavirus 2, HeLa-ACE2, detail block, read-out: HeLa-ACE2 TOA CoV-2 EC50 GeoMean): > 9.59 µM
TOA:HeLa-ACE2 EC50 Ratio ([4]; TOA EC50 / HeLa-ACE2 SARS-CoV-2 EC50): 1.014
reduction in apical viral loads [5]: > 1 log
Emax ([6]; Severe acute respiratory syndrome coronavirus 2, HeLa-ACE2, 24 h, curve plateau at infinite concentration, read-out: HeLa-ACE2 CoV-2 Sinf Average): 100%
EC50 ([6]; Severe acute respiratory syndrome coronavirus 2, HeLa-ACE2, detail block, read-out: HeLa-ACE2 CoV-2 EC50 GeoMean): > 9.45 µM
HeLa-ACE2 SI ([6]; selectivity index, uninfected HeLa-ACE2 CC50 / SARS-CoV-2 EC50): > 4.21
CC50 at 72 h [7]: > 39.8 µM
Cl [8]: 24.06 L/h/kg
viral reduction ([9]; 50 mg/kg PO BID, compared to vehicle control): 99%
live viral titers in the lungs ([9]; 50 mg/kg PO BID, day 5, group average): 4.5 × 10^3 PFU/lung
SARS-CoV-2 viral load in lung by plaque quantification, individual animals ([9]; 50 mg/kg, day 5): 4.176 and 0 and 3.653 and 4.477
live viral titers in the lungs ([9]; 150 mg/kg PO BID, day 5): undetectable
SARS-CoV-2 viral load in lung by plaque quantification, individual animals ([9]; 150 mg/kg, day 5): 0
live viral titers in the lungs ([9]; 500 mg/kg PO BID, day 5): undetectable
SARS-CoV-2 viral load in lung by plaque quantification, individual animals ([9]; 500 mg/kg, day 5): 0
EC50 [10]: > 9.59 µM
group average % of starting weight ([11]; 50 mg/kg PO BID): 90%
Percent weight from day 0, individual animals ([11]; 50 mg/kg, Day 1): 100.619% and 100% and 99.9008% and 97.2408% and 100.231%
Percent weight from day 0, individual animals ([11]; 50 mg/kg, Day 2): 97.6006% and 97.2498% and 96.3294% and 93.8963% and 97.0023%
Percent weight from day 0, individual animals ([11]; 50 mg/kg, Day 3): 96.13% and 95.8747% and 93.0556% and 92.5585% and 94.3121%
Percent weight from day 0, individual animals ([11]; 50 mg/kg, Day 4): 94.4272% and 93.9649% and 89.1865% and 91.7224% and 90.8532%
Percent weight from day 0, individual animals ([11]; 50 mg/kg, Day 5): 93.4985% and 90.2215% and 86.4087% and 91.3043% and 88.9316%
group average % of starting weight ([11]; 150 mg/kg PO BID): 89%
Percent weight from day 0, individual animals ([11]; 150 mg/kg, Day 1): 99.3145% and 100.794% and 101.014% and 100.59% and 100.598%
Percent weight from day 0, individual animals ([11]; 150 mg/kg, Day 2): 97.0009% and 97.9349% and 97.6599% and 97.2199% and 98.281%
Percent weight from day 0, individual animals ([11]; 150 mg/kg, Day 3): 94.7729% and 96.1875% and 94.7738% and 95.7035% and 94.843%
Percent weight from day 0, individual animals ([11]; 150 mg/kg, Day 4): 92.1165% and 92.5338% and 92.3635% and 94.524% and 91.4798%
Percent weight from day 0, individual animals ([11]; 150 mg/kg, Day 5): 90.4884% and 88.2446% and 89.2356% and 90.9014% and 88.0419%
group average % of starting weight ([11]; 500 mg/kg PO BID): 97%
Percent weight from day 0, individual animals ([11]; 500 mg/kg, Day 1): 100.542% and 100.174% and 100.172% and 100.97% and 95.4962%
Percent weight from day 0, individual animals ([11]; 500 mg/kg, Day 2): 100.619% and 100.174% and 98.4483% and 98.806% and 95.246%
Percent weight from day 0, individual animals ([11]; 500 mg/kg, Day 3): 101.161% and 99.7394% and 97.8448% and 97.1642% and 96.9975%
Percent weight from day 0, individual animals ([11]; 500 mg/kg, Day 4): 100.774% and 99.5656% and 97.1552% and 94.5522% and 97.9983%
Percent weight from day 0, individual animals ([11]; 500 mg/kg, Day 5): 100.31% and 99.7394% and 95.9483% and 95.597% and 98.0817%
histological examination of lungs [12]: protected
abundance of cellularity and infiltrates in the lungs (ImageJ) ([12]; MK-4482-treated, Hamster 1-4, individual images): 2983 and 5397 and 4186 and 5390 and 1931 and 4673 and 3775 and 5624 and 2350 and 4146 and 3662 and 5094 and 4440 and 4933 and 3481 and 5058 and 2520 and 4471 and 3837 and 4151 and 2838 and 4738 and 3878 and 3011 and 2773
uninfected Calu-3 CC50 [13]: > 29.85 ×÷ 1 (n=2) μM
cytotox ([13]; human): -7.212
genes significantly down regulated vs infected vehicle-treated controls (DESeq2) [14]: 66 genes
unsupervised hierarchical clustering of lung RNA-Seq samples [14]: clustered together with uninfected samples
Emax ([15]; HeLa-ACE2, 24 h, read-out: HeLa-ACE2 cell count Sinf Average): 100%
EC50 ([15]; HeLa-ACE2, read-out: HeLa-ACE2 cell count EC50 GeoMean, detail block): > 9.59 µM
Emax ([16]; Calu-3, 48 h, read-out: Calu-3 cell count Sinf Average): 100%
EC50 ([16]; Calu-3, read-out: Calu-3 cell count EC50 GeoMean, detail block): > 9.98 µM
CC50 at 72 h [17]: > 39.8 µM
CC50 at 48 h [18]: > 29.9 µM
